Measured values published in the NIST ThermoML archive (doi:10.1021/je300631s).

What was measured:
[1] = for surface tension liquid-gas: Maximal bubble pressure; for mass density: 101.33 kPa, Vibrating tube method
[2] = refractive index (Na D-line) (dimensionless); settings: 298.15 K; 101.33 kPa; Liquid; Standard Abbe refractometry
[3] = xn = mol fraction of the nth substance listed; settings: 298.15 K, 101 kPa, Liquid, Vibrating tube method

Cc1ccc(C)o1 [2,5-dimethylfuran]
[1]
Settings	surface tension liquid-gas [mN/m]
293.15 K	25.42
303.15 K	24.04
313.15 K	22.73
323.15 K	21.41
333.15 K	20.22
343.15 K	19.1
353.15 K	18.05
358.15 K	17.5

[1]
Settings	Normal boiling temperature, Liquid [°C]	mass density, 293.15 K [kg/m3]	mass density, 298.15 K [kg/m3]	mass density, 303.15 K [kg/m3]	mass density, 313.15 K [kg/m3]	mass density, 323.15 K [kg/m3]	mass density, 333.15 K [kg/m3]	mass density, 343.15 K [kg/m3]	mass density, 353.15 K [kg/m3]	mass density, 358.15 K [kg/m3]
Ebulliometric method (Recirculating still)	93.68	–	–	–	–	–	–	–	–	–
Liquid	–	901.18	895.7	890.37	879.43	868.36	857.1	845.67	834.01	828.13

[1], Liquid, Ebulliometric method (Recirculating still)
Settings	vapor or sublimation pressure [kPa]
331.46 K	30.01
335.51 K	35.01
339.09 K	40.01
342.32 K	45.01
345.26 K	50.01
348 K	55.01
350.53 K	60.01
352.9 K	65.01
355.13 K	70.01
357.24 K	75.01
359.24 K	80.01
361.13 K	85.01
362.95 K	90.01
364.69 K	95.01
366.79 K	101.33

Settings	refractive index
[2]	1.4404

CCCCCC [hexane] + Cc1ccc(C)o1
Settings	mass density [kg/m3]
[3], x1 = 1	655.17

Cc1ccc(C)o1 [2,5-dimethylfuran] + CCCCCC
[3]
Settings	mass density [kg/m3]
x2 = 0	895.7
x2 = 0.058	878.43
x2 = 0.103	865.07
x2 = 0.169	846.48
x2 = 0.211	834.86
x2 = 0.284	815.33
x2 = 0.326	804.35
x2 = 0.373	792.42
x2 = 0.425	779.22
x2 = 0.474	767.35
x2 = 0.523	755.53
x2 = 0.577	743.04
x2 = 0.671	722.12
x2 = 0.73	709.38
x2 = 0.854	683.63
x2 = 0.915	671.56
x2 = 0.979	659.09
